Results as given in patent publication US20070202577A1, “Method For The Production Of Hyperbranched Polysaccharide Fractions” (priority 2004, published 2007).

Target: T1, α-amylase from porcine pancreas (Sus scrofa, UniProt P00690)
T1 sequence (P00690 16-511): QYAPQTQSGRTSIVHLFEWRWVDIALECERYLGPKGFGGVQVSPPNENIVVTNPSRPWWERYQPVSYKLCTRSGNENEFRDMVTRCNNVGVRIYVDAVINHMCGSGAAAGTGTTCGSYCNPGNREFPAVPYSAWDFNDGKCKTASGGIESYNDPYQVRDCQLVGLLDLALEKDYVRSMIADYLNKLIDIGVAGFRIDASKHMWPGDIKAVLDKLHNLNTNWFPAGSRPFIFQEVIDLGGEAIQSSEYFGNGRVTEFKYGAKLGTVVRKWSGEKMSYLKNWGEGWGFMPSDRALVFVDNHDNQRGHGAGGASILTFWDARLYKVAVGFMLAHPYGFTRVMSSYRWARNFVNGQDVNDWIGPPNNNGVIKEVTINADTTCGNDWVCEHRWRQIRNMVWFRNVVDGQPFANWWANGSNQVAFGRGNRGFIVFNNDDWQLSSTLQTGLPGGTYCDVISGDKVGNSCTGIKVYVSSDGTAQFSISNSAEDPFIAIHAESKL
Procedure: The solution was heated to 37.0° C., and 0.5 I.U./ml α-amylase from porcine pancreas (from Roche; AS, Art. No. 102 814) was added. Samples were taken after 1 and 3 hours, the enzyme was inactivated by heat, and the molecular weight of the remaining high molecular weight fraction was determined by HPGPC.

Q: Which “rate of degradation with α-amylase, compared with the hyperbranched amylopectin fraction from example 7” value does the source give for hydroxyethyl starch [Voluven] here?
A: comparable

Q: What about the “initial weight average molecular weight” value (pH 7.2) of the same substance?
A: 140 200 daltons

Q: What about the “weight average molecular weight after hydrolysis for 1 hour” value (pH 7.2) of the same substance?
A: 54 700 daltons

Q: What about the “weight average molecular weight after hydrolysis for 3 hours” value (pH 7.2) of the same substance?
A: 33 700 daltons
